Legend:
[1] = target: T1, Glycine receptor (alpha-1/beta) (Homo sapiens, UniProt P23415+P48167); test: Antagonist activity at human glycine receptor subunit alpha-1beta expressed in human tsA201 cells assessed as reduction in glycine-induced response incubated for 30 mins by fluorescence-based FLIPR membrane potential blue assay; format: cell-based; conditions: read-out: IC50
[2] = target: T2, Glycine receptor subunit alpha-1 (Homo sapiens, UniProt P23415); test: Antagonist activity at human glycine receptor subunit alpha-1 expressed in human tsA201 cells assessed as reduction in glycine-induced response incubated for 30 mins by fluorescence-based FLIPR membrane potential blue assay; format: cell-based; conditions: for IC50: read-out: IC50
T2 sequence (P23415 whole entry): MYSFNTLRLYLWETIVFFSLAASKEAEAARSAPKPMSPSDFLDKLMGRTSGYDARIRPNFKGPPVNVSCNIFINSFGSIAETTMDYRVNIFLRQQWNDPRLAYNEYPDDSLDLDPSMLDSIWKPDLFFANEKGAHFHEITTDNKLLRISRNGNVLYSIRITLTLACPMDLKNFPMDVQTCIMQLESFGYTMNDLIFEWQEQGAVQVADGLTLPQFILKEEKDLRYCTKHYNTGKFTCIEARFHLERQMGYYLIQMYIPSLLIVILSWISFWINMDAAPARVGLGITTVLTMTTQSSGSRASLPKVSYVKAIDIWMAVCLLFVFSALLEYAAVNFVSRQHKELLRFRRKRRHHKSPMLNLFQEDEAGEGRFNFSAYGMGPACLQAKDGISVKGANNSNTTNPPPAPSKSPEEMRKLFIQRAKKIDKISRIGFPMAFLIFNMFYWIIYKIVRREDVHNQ

[3] = target: T1, Glycine receptor (alpha-1/beta); test: Antagonist activity at human glycine receptor subunit alpha-1beta expressed in HEK293 cells assessed as reduction in glycine-induced currents by whole-cell patch-clamp assay; format: cell-based
[4] = target: T2, Glycine receptor subunit alpha-1; test: Antagonist activity at human glycine receptor subunit alpha-1 expressed in HEK293 cells assessed as reduction in glycine-induced currents by whole-cell patch-clamp assay; format: cell-based
[5] = target: T2, Glycine receptor subunit alpha-1; test: Displacement of [3H]strychnine from human glycine receptor subunit alpha-1 expressed in HEK293 cell membranes preincubated for 30 mins followed by [3H]strychnine addition and measured after 30 mins by liquid scintillation counting method; parameters: species or system Membrane
[6] = target: T2, Glycine receptor subunit alpha-1; test: Antagonist activity at human glycine receptor subunit alpha-1 assessed as inhibition of glycine-induced current measured at the later state of compound application by patch-clamp assay
[7] = target: T2, Glycine receptor subunit alpha-1; test: Antagonist activity at human glycine receptor subunit alpha-1 assessed as inhibition of glycine-induced current measured at the onset of compound application by patch-clamp assay

T1 sequence (P48167 whole entry, one chain of several): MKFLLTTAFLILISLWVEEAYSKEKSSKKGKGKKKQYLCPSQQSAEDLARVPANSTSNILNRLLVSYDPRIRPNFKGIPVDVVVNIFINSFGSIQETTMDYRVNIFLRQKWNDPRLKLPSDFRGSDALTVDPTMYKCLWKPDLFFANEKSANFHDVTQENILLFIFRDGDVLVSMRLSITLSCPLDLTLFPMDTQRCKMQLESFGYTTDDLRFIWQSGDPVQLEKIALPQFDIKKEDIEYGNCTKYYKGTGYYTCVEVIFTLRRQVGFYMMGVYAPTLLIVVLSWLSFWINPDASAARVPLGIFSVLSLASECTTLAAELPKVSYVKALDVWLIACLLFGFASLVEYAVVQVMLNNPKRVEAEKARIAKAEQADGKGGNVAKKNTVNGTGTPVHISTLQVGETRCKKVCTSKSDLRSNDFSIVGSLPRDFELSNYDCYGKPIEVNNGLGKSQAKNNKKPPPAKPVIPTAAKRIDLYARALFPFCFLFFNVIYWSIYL

O=C(CCCCCCCCC(=O)Nc1ccc2c(c1)[C@@]13CCN4CC5=CCO[C@H]6CC(=O)N2[C@H]1[C@H]6[C@H]5C[C@H]43)Nc1ccc2c(c1)[C@@]13CCN4CC5=CCO[C@H]6CC(=O)N2[C@H]1[C@H]6[C@H]5C[C@H]43
IC50 [1]: 10 µM | IC50 [2]: 7.2 µM | IC50 [3]: 1.9 µM | IC50 [4]: 1.5 µM

O=C(CCCCCCCCCCC(=O)Nc1ccc2c(c1)[C@@]13CCN4CC5=CCO[C@H]6CC(=O)N2[C@H]1[C@H]6[C@H]5C[C@H]43)Nc1ccc2c(c1)[C@@]13CCN4CC5=CCO[C@H]6CC(=O)N2[C@H]1[C@H]6[C@H]5C[C@H]43
IC50 [1]: 1.8 µM | IC50 [2]: 1.1 µM | IC50 [3]: 0.8 µM | IC50 [4]: 0.72 µM

O=C(CCOCCOCCOCCOCCOCCOCCOCCOCCOCCOCCOCCOCCC(=O)NCCCCCCCCCCC(=O)Nc1ccc2c(c1)[C@@]13CCN4CC5=CCO[C@H]6CC(=O)N2[C@H]1[C@H]6[C@H]5C[C@H]43)NCCCCCCCCCCC(=O)Nc1ccc2c(c1)[C@@]13CCN4CC5=CCO[C@H]6CC(=O)N2[C@H]1[C@H]6[C@H]5C[C@H]43
Ki [5]: 0.204 µM | IC50 [6]: 0.067 µM | IC50 [1]: 3.9 µM | IC50 [2]: 10 µM | IC50 [7]: 3.31 µM

O=C(CCCCCCC(=O)Nc1ccc2c(c1)[C@@]13CCN4CC5=CCO[C@H]6CC(=O)N2[C@H]1[C@H]6[C@H]5C[C@H]43)Nc1ccc2c(c1)[C@@]13CCN4CC5=CCO[C@H]6CC(=O)N2[C@H]1[C@H]6[C@H]5C[C@H]43
IC50 [1]: 10 µM | IC50 [2]: 6.9 µM | IC50 [3]: 1.3 µM | IC50 [4]: 1.1 µM

O=C(CCOCCOCCOCCOCCOCCOCCOCCOCCOCCOCCOCCOCCC(=O)NCCCCC(=O)Nc1ccc2c(c1)[C@@]13CCN4CC5=CCO[C@H]6CC(=O)N2[C@H]1[C@H]6[C@H]5C[C@H]43)NCCCCC(=O)Nc1ccc2c(c1)[C@@]13CCN4CC5=CCO[C@H]6CC(=O)N2[C@H]1[C@H]6[C@H]5C[C@H]43
Ki [5]: 0.081 µM | IC50 [6]: 0.055 µM | IC50 [1]: 1.8 µM | IC50 [2]: 4.3 µM | IC50 [7]: 1.34 µM

O=C1C[C@@H]2OCC=C3CN4CC[C@]56c7ccccc7N1[C@H]5[C@H]2[C@H]3C[C@H]46 [STRYCHNINE]
Ki [5]: 0.005 µM | IC50 [6]: 0.027 µM | IC50 ([1]; tsa201): 0.51 µM | pIC50 ([2]; tsa201): 6.82 | IC50 [3]: 0.06 µM | IC50 [4]: 0.05 µM | IC50 [7]: 0.134 µM
